According to ChEMBL document CHEMBL1149448, “Synthesis and structure-activity relationships of a new series of 2alpha-substituted trans-4,5-dimethyl-4-(3-hydroxyphenyl)piperidine as mu-selective opioid antagonists” (Bioorg Med Chem Lett, 2006):

Legend:
[1] = biological target: Delta-type opioid receptor (Homo sapiens, UniProt P41143); test: Displacement of [3H]diprenorphine from human cloned delta opioid receptor
Mu-type opioid receptor [2] = biological target: T1, Mu-type opioid receptor (Homo sapiens, UniProt P35372); test: Inhibition of loperamide-stimulated [35S]GTP-gamma-S binding to membranes containing mu opioid receptor; format: functional
T1 sequence (P35372 whole entry): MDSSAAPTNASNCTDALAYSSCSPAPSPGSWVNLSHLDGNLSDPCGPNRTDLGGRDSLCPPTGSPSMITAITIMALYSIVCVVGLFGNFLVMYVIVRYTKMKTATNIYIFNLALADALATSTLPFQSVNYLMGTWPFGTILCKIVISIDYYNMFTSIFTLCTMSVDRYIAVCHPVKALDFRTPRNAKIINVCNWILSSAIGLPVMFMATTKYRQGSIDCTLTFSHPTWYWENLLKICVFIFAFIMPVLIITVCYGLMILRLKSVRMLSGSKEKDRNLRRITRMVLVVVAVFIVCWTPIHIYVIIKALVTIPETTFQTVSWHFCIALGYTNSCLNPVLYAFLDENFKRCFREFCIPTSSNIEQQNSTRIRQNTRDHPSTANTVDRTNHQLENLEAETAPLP

Mu-type opioid receptor [3] = biological target: T1, Mu-type opioid receptor; test: Displacement of [3H]diprenorphine from human cloned mu opioid receptor
[4] = biological target: Kappa-type opioid receptor (Homo sapiens, UniProt P41145); test: Displacement of [3H]diprenorphine from human cloned kappa opioid receptor
Sequence of Kappa-type opioid receptor (P41145 whole entry): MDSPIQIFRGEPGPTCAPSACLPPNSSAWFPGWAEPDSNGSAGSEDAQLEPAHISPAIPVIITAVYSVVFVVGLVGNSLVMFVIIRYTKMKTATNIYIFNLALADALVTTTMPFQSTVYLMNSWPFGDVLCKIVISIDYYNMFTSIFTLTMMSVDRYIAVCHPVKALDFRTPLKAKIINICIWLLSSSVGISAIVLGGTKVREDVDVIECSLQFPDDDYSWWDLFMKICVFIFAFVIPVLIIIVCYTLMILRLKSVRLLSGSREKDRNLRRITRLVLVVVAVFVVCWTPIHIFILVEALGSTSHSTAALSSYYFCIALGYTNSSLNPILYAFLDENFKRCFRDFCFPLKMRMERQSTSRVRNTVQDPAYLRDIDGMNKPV

Sequence of Delta-type opioid receptor (P41143 whole entry): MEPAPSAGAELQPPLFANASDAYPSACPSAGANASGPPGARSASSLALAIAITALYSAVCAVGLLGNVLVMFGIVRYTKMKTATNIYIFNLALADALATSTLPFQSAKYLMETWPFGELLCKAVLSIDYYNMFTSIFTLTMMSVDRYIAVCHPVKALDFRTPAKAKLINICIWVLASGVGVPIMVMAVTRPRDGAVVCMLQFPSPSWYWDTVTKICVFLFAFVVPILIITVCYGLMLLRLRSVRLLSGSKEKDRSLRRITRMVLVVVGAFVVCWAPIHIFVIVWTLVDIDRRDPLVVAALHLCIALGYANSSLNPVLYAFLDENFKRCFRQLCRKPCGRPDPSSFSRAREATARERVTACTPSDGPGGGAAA

Row | Compound | Ki [1] [nM] | IC50 (Mu-type opioid receptor [2]) [nM] | Ki (Mu-type opioid receptor [3]) [nM] | Ki [4] [nM]
1 | C[C@H]1CN(CCc2ccccc2)[C@H](CCN2CCCC2)C[C@@]1(C)c1cccc(O)c1 | > 1000 | > 1000 | > 1000 | > 1000
2 | CCC[C@@H]1C[C@@](C)(c2cccc(O)c2)[C@@H](C)CN1 | > 1000 | > 1000 | 560 | 690
3 | CCC[C@@H]1C[C@@](C)(c2cccc(O)c2)[C@@H](C)CN1Cc1ccccc1 | 880 | 170 | 700 | 360
4 | C[C@H]1CN(CCc2ccccc2)[C@H](CCc2ccccc2)C[C@@]1(C)c1cccc(O)c1 | 610 | 210 | 160 | 790
5 | C[C@H]1CN(CCc2ccccc2)[C@H](c2ccccc2)C[C@@]1(C)c1cccc(O)c1 | 260 | > 1000 | 280 | 290
6 | C[C@H]1CN(CCc2ccccc2)[C@H](CCN)C[C@@]1(C)c1cccc(O)c1 | > 1000 | 390 | 780 | 510
7 | CCC[C@@H]1C[C@@](C)(c2cccc(O)c2)[C@@H](C)CN1CCCc1ccccc1 | 180 | 16 | 19 | 74
8 | C[C@H]1CN(CCc2ccccc2)[C@H](CCNC(=O)c2ccccc2)C[C@@]1(C)c1cccc(O)c1 | 710 | 130 | 59 | 200
9 | CCC[C@@H]1C[C@@](C)(c2cccc(O)c2)[C@@H](C)CN1CCC | > 1000 | 320 | 430 | 360
10 | CCCCN1C[C@H](C)[C@](C)(c2cccc(O)c2)C[C@H]1CCC | > 1000 | 290 | 550 | 610
11 | CCCCCN1C[C@H](C)[C@](C)(c2cccc(O)c2)C[C@H]1CCC | > 1000 | 210 | 380 | 570
12 | CCCCCCN1C[C@H](C)[C@](C)(c2cccc(O)c2)C[C@H]1CCC | 340 | 39 | 47 | 150
13 | CCCC[C@@H]1C[C@@](C)(c2cccc(O)c2)[C@@H](C)CN1CCc1ccccc1 | 580 | 120 | 110 | 200
14 | CCC[C@@H]1C[C@@](C)(c2cccc(O)c2)[C@@H](C)CN1C | > 1000 | 170 | 520 | 220
15 | CCC[C@@H]1C[C@@](C)(c2cccc(O)c2)[C@@H](C)CN1CC | > 1000 | 100 |  | 270
16 | C[C@H]1CN(CCc2ccccc2)[C@H](Cc2ccccc2)C[C@@]1(C)c1cccc(O)c1 | 800 | 280 | 290 | 920
17 | C[C@@H]1C[C@@](C)(c2cccc(O)c2)[C@@H](C)CN1CCc1ccccc1 | 65 | 50 | 15 | 100
18 | CC[C@@H]1C[C@@](C)(c2cccc(O)c2)[C@@H](C)CN1CCc1ccccc1 | 680 | 90 | 75 | 710
19 | CCC[C@@H]1C[C@@](C)(c2cccc(O)c2)[C@@H](C)CN1CCc1ccccc1 | 120 | 15 | 20 | 110
20 | C[C@H]1CN(CCc2ccccc2)[C@H](CCCc2ccccc2)C[C@@]1(C)c1cccc(O)c1 | 320 | 360 | 230 | 260
21 | CCCCCCCN1C[C@H](C)[C@](C)(c2cccc(O)c2)C[C@H]1CCC | 80 | 9 | 13 | 57
22 | CC(=O)NCC[C@@H]1C[C@@](C)(c2cccc(O)c2)[C@@H](C)CN1CCc1ccccc1 | > 1000 | 130 | 190 | 620
23 | CC(C)[C@@H]1C[C@@](C)(c2cccc(O)c2)[C@@H](C)CN1CCc1ccccc1 | > 1000 | 620 | 270 | > 1000
